Data taken from BindingDB's records for patent US20260034094 (Kojin Therapeutics, 2026).

target: T1, Glutamate--cysteine ligase catalytic subunit (Homo sapiens, UniProt P48506); experiment: GCL Enzyme Profiling Assay
T1 sequence (P48506 whole entry): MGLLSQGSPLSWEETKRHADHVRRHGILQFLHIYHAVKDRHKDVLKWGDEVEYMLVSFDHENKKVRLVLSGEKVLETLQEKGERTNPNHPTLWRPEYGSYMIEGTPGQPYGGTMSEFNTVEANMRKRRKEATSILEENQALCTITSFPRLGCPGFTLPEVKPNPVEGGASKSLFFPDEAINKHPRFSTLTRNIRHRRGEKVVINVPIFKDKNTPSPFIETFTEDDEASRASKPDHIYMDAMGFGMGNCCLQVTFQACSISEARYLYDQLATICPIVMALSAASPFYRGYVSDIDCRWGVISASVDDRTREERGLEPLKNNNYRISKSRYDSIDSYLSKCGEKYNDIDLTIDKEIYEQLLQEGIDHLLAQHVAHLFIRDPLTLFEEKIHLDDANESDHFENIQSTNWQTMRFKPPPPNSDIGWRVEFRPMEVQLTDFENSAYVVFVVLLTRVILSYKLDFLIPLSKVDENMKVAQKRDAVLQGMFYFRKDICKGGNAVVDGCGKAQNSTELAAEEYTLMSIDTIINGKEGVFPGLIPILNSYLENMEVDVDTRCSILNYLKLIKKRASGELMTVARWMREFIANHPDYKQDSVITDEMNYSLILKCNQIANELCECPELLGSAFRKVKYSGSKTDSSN
Experimental: Compound in pure DMSO was stamped in assay plates (Greiner black 384-well) or appropriate containers using a D300e digital dispenser (TECAN) and the final DMSO concentration was normalized to 1%. A 5 mL, or in the present case, 5 μL mixture of human recombinant GCL (final concentration: 5 nM) and ATP (final concentration: 0.6 mM) was added and the solution was incubated at room temperature (22° C.) for 1 h. […] The reaction was stopped after 1 h or in the present case, 2 h by addition of 5 mL, or in the present case, 5 μL ADP GLO Reagent (Promega). The resulting solution was incubated for 2 h at room temperature. This was then followed by addition of 5 mL, or in the present case, 5 μL ADP GLO Detection. After incubation at room temperature for 30 min, the plates were read on a plate reader (PheraStar) using a luminescence protocol to quantify the GCL enzyme activity from each reaction solution.

IC50, < 20 µM:
Cc1ccc(-c2cccc(C(CCS(=N)(=O)CC[C@H](N)C(=O)O)C(F)(F)F)c2)cc1F (some centres not stated) [US20260034094, Compound 290]
N=S(=O)(CCC(c1ccc(-c2ccc(Br)cc2)cc1)C(F)(F)F)CC[C@H](N)C(=O)O (some centres not stated) [US20260034094, Compound 226]
Cc1cc(Cl)ccc1-c1cccc(C(CCS(=N)(=O)CC[C@H](N)C(=O)O)C(F)(F)F)c1 (some centres not stated) [US20260034094, Compound 283]
N=S(=O)(CC[C@H](N)C(=O)O)CCC(O)([C@H]1CC[C@@H](c2ccc(Cl)cc2Cl)CC1)C(F)(F)F (some centres not stated) [US20260034094, Compound 341]
CN1CCN(c2ccc(-c3ccc(C(CCS(=N)(=O)CC[C@H](N)C(=O)O)C(F)(F)F)cc3)cn2)CC1 (some centres not stated) [US20260034094, Compound 249]
N=S(=O)(CC[C@H](N)C(=O)O)CCC(O)([C@H]1CC[C@H](c2ccc(Cl)cc2Cl)CC1)C(F)(F)F (some centres not stated) [US20260034094, Compound 340]
CC(C)(O)c1ccc(C(CCS(=N)(=O)CC[C@H](N)C(=O)O)C(F)(F)F)cc1 (some centres not stated) [US20260034094, Compound 263]
C=C(c1ccc(C(CCS(=N)(=O)CC[C@H](N)C(=O)O)C(F)(F)F)cc1)C(F)(F)F (some centres not stated) [US20260034094, Compound 260]
N=S(=O)(CCC(c1ccc(-c2ccc(C(N)=O)nc2)cc1)C(F)(F)F)CC[C@H](N)C(=O)O (some centres not stated) [US20260034094, Compound 245]
Cc1ccccc1-c1ccc(C(CCS(=N)(=O)CC[C@H](N)C(=O)O)C(F)(F)F)cc1 (some centres not stated) [US20260034094, Compound 265]
COc1ccc(-c2ccc(C(CCS(=N)(=O)CC[C@H](N)C(=O)O)C(F)(F)F)cc2)c(Cl)c1 (some centres not stated) [US20260034094, Compound 268]
Cn1ncc(-c2ccc(C(O)(CCS(=N)(=O)CC[C@H](N)C(=O)O)C(F)(F)F)cc2)cc1=O (some centres not stated) [US20260034094, Compound 433]
N=S(=O)(CCC(c1ccc(-c2ccc(O)cc2Cl)cc1)C(F)(F)F)CC[C@H](N)C(=O)O (some centres not stated) [US20260034094, Compound 270]
N=S(=O)(CCC(c1ccc(Oc2ccccc2)cc1)C(F)(F)F)CC[C@H](N)C(=O)O (some centres not stated) [US20260034094, Compound 316]
N=S(=O)(CCC(c1ccc(S(=O)(=O)Cc2ccccc2)cc1)C(F)(F)F)CC[C@H](N)C(=O)O (some centres not stated) [US20260034094, Compound 291]
N[C@@H](CCS(=O)(=O)CCC(O)(c1ncc(-c2ccc(Cl)cc2Cl)cn1)C(F)(F)F)C(=O)O (some centres not stated) [US20260034094, Compound 470]
N=S(=O)(CC[C@H](N)C(=O)O)CCC(O)(c1ncc(-c2ccc(Cl)cc2Cl)cn1)C(F)(F)F (some centres not stated) [US20260034094, Compound 462]
N=S(=O)(CCC(c1cccc2ccccc12)C(F)(F)F)CC[C@H](N)C(=O)O (some centres not stated) [US20260034094, Compound 311]
N=S(=O)(CCC(c1ccc(-c2cc[nH]n2)cc1)C(F)(F)F)CC[C@H](N)C(=O)O (some centres not stated) [US20260034094, Compound 228]
N=S(=O)(CCC(c1ccc(-c2ccoc2)cc1)C(F)(F)F)CC[C@H](N)C(=O)O (some centres not stated) [US20260034094, Compound 258]
N=S(=O)(CCC(c1ccc(-c2ccc(F)cc2O)cc1)C(F)(F)F)CC[C@H](N)C(=O)O (some centres not stated) [US20260034094, Compound 281]
N=S(=O)(CCC(c1ccc(-c2ccc(Cl)cc2Cl)cn1)C(F)(F)F)CC[C@H](N)C(=O)O (some centres not stated) [US20260034094, Compound 317]
N=S(=O)(CCC(c1ccc(-c2cccc(C(N)=O)c2)cc1)C(F)(F)F)CC[C@H](N)C(=O)O (some centres not stated) [US20260034094, Compound 229]
N=S(=O)(CCC(c1ccc(-c2ccc3cn[nH]c3c2)cc1)C(F)(F)F)CC[C@H](N)C(=O)O (some centres not stated) [US20260034094, Compound 255]
N=S(=O)(CCC(c1cccc(C#Cc2ccccc2)c1)C(F)(F)F)CC[C@H](N)C(=O)O (some centres not stated) [US20260034094, Compound 273]
N=S(=O)(CCC(c1ccc(C2CC2)cc1)C(F)(F)F)CC[C@H](N)C(=O)O (some centres not stated) [US20260034094, Compound 225]
N=S(=O)(CCC(c1ccc(-c2ccc(C(F)F)cc2)cc1)C(F)(F)F)CC[C@H](N)C(=O)O (some centres not stated) [US20260034094, Compound 231]
N=S(=O)(CC[C@H](N)C(=O)O)CCC(O)(c1cccc(-c2ccccc2)c1)C(F)(F)F (some centres not stated) [US20260034094, Compound 435]
N=S(=O)(CC[C@H](N)C(=O)O)CCC(O)(c1cnc(-c2ccc(Cl)cc2Cl)nc1)C(F)(F)F (some centres not stated) [US20260034094, Compound 366]
Cc1ccccc1-c1ccc(C(O)(CCS(=N)(=O)CC[C@H](N)C(=O)O)C(F)(F)F)nc1 (some centres not stated) [US20260034094, Compound 471]
N=S(=O)(CCC(c1ccc(-c2ccccc2C(F)(F)F)cc1)C(F)(F)F)CC[C@H](N)C(=O)O (some centres not stated) [US20260034094, Compound 267]
N=S(=O)(CCC(c1ccccc1O)C(F)(F)F)CC[C@H](N)C(=O)O (some centres not stated) [US20260034094, Compound 397]
N=S(=O)(CCC(c1ccc(-c2ccccc2)cc1Cl)C(F)(F)F)CC[C@H](N)C(=O)O (some centres not stated) [US20260034094, Compound 315]
CNC(=O)c1cccc(-c2ccc(C(CCS(=N)(=O)CC[C@H](N)C(=O)O)C(F)(F)F)cc2)c1 (some centres not stated) [US20260034094, Compound 230]
N=S(=O)(CC[C@H](N)C(=O)O)CCC(O)(c1ccc(C2CCCCC2)cn1)C(F)(F)F (some centres not stated) [US20260034094, Compound 476]
Cc1cc(Cl)ccc1-c1ccc(C(CCS(=N)(=O)CC[C@H](N)C(=O)O)C(F)(F)F)cc1 (some centres not stated) [US20260034094, Compound 275]
Cc1cc(F)ccc1-c1ccc(C(CCS(=N)(=O)CC[C@H](N)C(=O)O)C(F)(F)F)cc1 (some centres not stated) [US20260034094, Compound 278]
N=S(=O)(CCC(c1ccc(-c2cnc(N)nc2)cc1)C(F)(F)F)CC[C@H](N)C(=O)O (some centres not stated) [US20260034094, Compound 251]
N=S(=O)(CC[C@H](N)C(=O)O)CCC(O)(c1cc(-c2ccc(Cl)cc2Cl)cs1)C(F)(F)F (some centres not stated) [US20260034094, Compound 337]
N=S(=O)(CC[C@H](N)C(=O)O)CCC1(c2ccc(Oc3ccc(Cl)cc3Cl)cc2)CCC1 (some centres not stated) [US20260034094, Compound 403]
Cc1ccc(-c2ccc(C(O)(CCS(=N)(=O)CC[C@H](N)C(=O)O)C(F)(F)F)cc2)c(F)c1 (some centres not stated) [US20260034094, Compound 437]
N=S(=O)(CCC(c1ccc(-c2ccc(Cl)cc2Cl)cc1)C(F)(F)F)CC[C@H](N)C(=O)O (some centres not stated) [US20260034094, Compound 269]
